In patent US6358921B1, “Antimicrobial peptide compositions and method” (priority 1996, dated 2002):

Legend:
C. Albicans = type: cell-based, Candida albicans
Description: (§1) The following bacterial strains were utilized: Escherichia coli UB1005 (wt) and its antibiotic supersusceptible derivative DC2 (Clark, 1984); Excherichia coli SC9251 and its polymixin B rasistant mutant pmrA SC9252 (Peterson, et al., 1987) Pseudomonas aeruginosa H187 (wt) (Angus, et al., 1987) and its antibiotic-sensitive derivative H188 (Zimmerman, W, Antimicrob. Agents Chemother. 18: 94-100, 1980); methicillin sensitive Staphylococcus aureus K147 (Kreiswirth, et al., 1983); Staphylococcus aureus SAP0017, a methicillin resistant clinical isolate from Dr. A. Chow (University of British Columia); Bacillus subtilis, an environmental wt lab strain. Enterococcus faecalis are ATCC 29212 cells and Staphylococcus epidermidis was a clinical isolate from Dr. D. Speert (University of British Columbia). Antifungal activity was tested using a clinical lab isolate of Candida albicans. Salmonella typhinurium C57 and C610 (Fields, P.I., et al., Science 243: 1059-1062 (1989) Corynebacterium xerosis was an environmental isolate (University of British Columbia).
(§2) It is now apparent that agar-based assays severely underestimate antifungal activity as well as activity against gram negative microorganisms (Kondejewski, et al., 1996). Consequently, in the studies reported herein, a liquid-broth method was used to measure the antibiotic properties of the peptides. […] Briefly, cells were grown overnight at 37° C. in LB and diluted in the same medium. Serial dilutions of antibiotics were added to the microtitre plates in a volume of 100 μL followed by 10 μL of bacteria to give a final inoculum of 5×10^5 CFU/mL. Plates were incubated at 37° C. overnight and MICs determined as the lowest antibiotic concentration that inhibited growth. […]

C. xeroses = type: cell-based, Corynebacterium xerosis
Description: as §1, §2

B. subtilis = type: cell-based, Bacillus subtilis
Description: as §1, §2

[1] = Displacement of dansyl-polymyxin from LPS; type: binding, P. aeruginosa; conditions: read-out: LPS binding affinity: peptide concentration to displace 50% of dansyl-polymyxin B from LPS; Tables 1, 4, 7
Description: In order to determine whether ring size affects the interaction between the peptide and bacterial membranes, we studied the interaction between the GS ring analogs and bacterial lipopolysaccharide (LPS). It has been shown previously that dansyl-polymixin (DPX) is a good probe for cationic binding sites on both purified LPS as well as whole bacterial cells (Example 8; Moore, et al., 1986; Sawyer, et al., 1988; Hancock, 1981). […] The LPS binding activity of various GS analogs was investigated, as discussed above.
Dansyl-polymixin (DPX) displacement from P. aeruginosa LPS was measured as described (Moore, et al., 1986). Briefly, peptides were titrated into cuvettes containing 3 μg of LPS per mL and 2.5 μM dansyl-polymixin (approximately 90% saturation of LPS binding sites) in 1 mL of 5 mM sodium HEPES buffer, pH 7.0, and the decrease in fluorescence recorded. A plot of the inverse of the percent inhibition as a function of the inverse of inhibitor concentration gave a value for I50, the inhibitor concentration resulting in 50% displacement of dansyl-polymixin from LPS (−1/× intercept).

E. coli DC2 = type: cell-based, Escherichia coli; conditions: DC2
Description: as §1
(§3) It is now apparent that agar-based assays severely underestimate antifungal activity as well as activity against gram negative microorganisms (Kondejewski, et al., 1996). Consequently, in the studies reported herein, a liquid-broth method was used to measure the antibiotic properties of the peptides. […] Briefly, cells were grown overnight at 37° C. in LB and diluted in the same medium. Serial dilutions of antibiotics were added to the microtitre plates in a volume of 100 μL followed by 10 μL of bacteria to give a final inoculum of 5×10^5 CFU/mL. Plates were incubated at 37° C. overnight and MICs determined as the lowest antibiotic concentration that inhibited growth.
(§4) The results from antimicrobial and hemolytic assays are combined to provide a “Therapeutic Index” (TI) for each peptide with respect to individual microorganisms. As reported herein, the TI is calculated as the hemolytic activity divided by the antimicrobial activity. The TI thus is a measure of specificity of the particular peptide for microbial membranes as opposed to human blood cell membranes. In the present studies, antimicrobial activities are reported as minimum inhibitory concentrations (MIC)—the lowest concentration of peptide (μg/ml) found to inhibit growth of the particular microbe. Hemolytic activity is reported as the concentration of peptide that effected complete lysis of blood cells after four hours. Thus, in the context of the present invention high TI values indicate microbial specificity and relative lack of toxicity.

S. epidermidis = type: cell-based, Staphylococcus epidermidis
Description: as §1, §2

E. faecalis = type: cell-based, Enterococcus faecalis
Description: as §1, §2

S. aureus K147 = type: cell-based, Staphylococcus aureus
Description: as §1, §3, §4

S. aureus SAP0017 = type: cell-based, Staphylococcus aureus
Description: as §1, §3, §4

E. coli UB1005 = type: cell-based, Escherichia coli; conditions: UB1005
Description: as §1, §2

P. aeruginosa H187 = type: cell-based, Pseudomonas aeruginosa; conditions: H187
Description: as §1, §3, §4

S. typhinurium C587 = type: cell-based, Salmonella typhinurium
Description: as §1, §2

S. typhinurium C610 = type: cell-based, Salmonella typhinurium
Description: as §1, §2

P. aeruginosa H188 = type: cell-based, Pseudomonas aeruginosa; conditions: H188
Description: as §1, §2

| SMILES | Minimum Inhibitory Concentration (activity) (C. Albicans) [µg/mL] | Minimum Inhibitory Concentration (activity) (C. xeroses) [µg/mL] | Minimum Inhibitory Concentration (activity) (B. subtilis) [µg/mL] | IC50 [1] [µM] | Minimum Inhibitory Concentration (activity) (E. coli DC2) [µg/mL] | Minimum Inhibitory Concentration (activity) (S. epidermidis) [µg/mL] | Minimum Inhibitory Concentration (activity) (E. faecalis) [µg/mL] | Minimum Inhibitory Concentration (activity) (S. aureus K147) [µg/mL] | Minimum Inhibitory Concentration (activity) (S. aureus SAP0017) [µg/mL] | Minimum Inhibitory Concentration (activity) (E. coli UB1005) [µg/mL] | Minimum Inhibitory Concentration (activity) (P. aeruginosa H187) [µg/mL] | Minimum Inhibitory Concentration (activity) (S. typhinurium C587) [µg/mL] | Minimum Inhibitory Concentration (activity) (S. typhinurium C610) [µg/mL] | Minimum Inhibitory Concentration (activity) (P. aeruginosa H188) [µg/mL] |
| --- | --- | --- | --- | --- | --- | --- | --- | --- | --- | --- | --- | --- | --- | --- |
| CC(C)C[C@@H]1NC(=O)[C@@H](CCCCN)NC(=O)[C@H](C(C)C)NC(=O)[C@@H](CCCCN)NC(=O)[C@H](CC(C)C)NC(=O)[C@@H]2CCCN2C(=O)[C@@H](Cc2ccc(O)cc2)NC(=O)[C@H](C(C)C)NC(=O)[C@@H](CCCCN)NC(=O)[C@H](CC(C)C)NC(=O)[C@@H](CCCCN)NC(=O)[C@H](C(C)C)NC(=O)[C@@H]2CCCN2C(=O)[C@@H](Cc2ccc(O)cc2)NC1=O [GS14K2K4K9K11] | >200 | 25 | >200 | 200 | 50 | >200 | >200 | >200 | >200 | 100 | >200 | >200 | 25 |  |
| CC(C)C[C@@H]1NC(=O)[C@H](CCCCN)NC(=O)[C@H](C(C)C)NC(=O)[C@H](CCCCN)NC(=O)[C@H](CC(C)C)NC(=O)[C@@H]2CCCN2C(=O)[C@@H](Cc2ccc(O)cc2)NC(=O)[C@H](C(C)C)NC(=O)[C@@H](CCCCN)NC(=O)[C@H](CC(C)C)NC(=O)[C@@H](CCCCN)NC(=O)[C@H](C(C)C)NC(=O)[C@@H]2CCCN2C(=O)[C@@H](Cc2ccc(O)cc2)NC1=O [GS14K2K4] | 200 | 9 | >200 | 120 | 6.2 | 100 | >200 | >200 | >200 | 50 | 150 | 200 | 25 |  |
| CC(C)C[C@@H]1NC(=O)[C@H](CCCCN)NC(=O)[C@H](C(C)C)NC(=O)[C@H](CCCCN)NC(=O)[C@H](CC(C)C)NC(=O)[C@@H]2CCCN2C(=O)[C@@H](Cc2ccc(O)cc2)NC(=O)[C@H](C(C)C)NC(=O)[C@H](CCCCN)NC(=O)[C@H](CC(C)C)NC(=O)[C@@H](CCCCN)NC(=O)[C@H](C(C)C)NC(=O)[C@@H]2CCCN2C(=O)[C@@H](Cc2ccc(O)cc2)NC1=O [GS14K2] | 6.2 | 0.8 | 50 | 50 | 3.1 | 6.2 | 1.5 | 100 | 50 |  | 75 | 25 | 3 | 62 |
| CC(C)C[C@@H]1NC(=O)[C@H](CCCCN)NC(=O)[C@H](C(C)C)NC(=O)[C@@H]2CCCN2C(=O)[C@@H](Cc2ccc(O)cc2)NC(=O)[C@H](CC(C)C)NC(=O)[C@H](CCCCN)NC(=O)[C@H](C(C)C)NC(=O)[C@@H](CCCCN)NC(=O)[C@H](CC(C)C)NC(=O)[C@@H]2CCCN2C(=O)[C@@H](Cc2ccc(O)cc2)NC(=O)[C@H](C(C)C)NC(=O)[C@H](CCCCN)NC1=O [GS14K9] | 6.2 | 1.5 | 25 | 60 | 3.1 | 6.2 | 1.5 | 50 | 25 |  | 50 | 17 | 6.2 | 62 |
| CC(C)C[C@@H]1NC(=O)[C@H](CCCCN)NC(=O)[C@H](C(C)C)NC(=O)[C@H](CCCCN)NC(=O)[C@H](CC(C)C)NC(=O)[C@@H]2CCCN2C(=O)[C@@H](Cc2ccc(O)cc2)NC(=O)[C@H](C(C)C)NC(=O)[C@H](CCCCN)NC(=O)[C@@H](CC(C)C)NC(=O)[C@H](CCCCN)NC(=O)[C@H](C(C)C)NC(=O)[C@@H]2CCCN2C(=O)[C@@H](Cc2ccc(O)cc2)NC1=O [GS14L3] | 100 | 0.8 | >200 | 35 | 50 | 50 | 0.8 | >200 | 200 | 200 | >200 | >200 | >200 | 200 |
| CC(C)C[C@@H]1NC(=O)[C@H](CCCCN)NC(=O)[C@H](C(C)C)NC(=O)[C@@H]2CCCN2C(=O)[C@@H](Cc2ccc(O)cc2)NC(=O)[C@@H](CC(C)C)NC(=O)[C@H](CCCCN)NC(=O)[C@H](C(C)C)NC(=O)[C@H](CCCCN)NC(=O)[C@H](CC(C)C)NC(=O)[C@@H]2CCCN2C(=O)[C@@H](Cc2ccc(O)cc2)NC(=O)[C@H](C(C)C)NC(=O)[C@H](CCCCN)NC1=O [GS14L12] | 9 | 3.1 | 200 | 32 | 3.1 | 3.1 | 0.8 | 100 | 50 | 17 | 200 | 150 | 50 |  |
